These results are taken from PMC10111022, “Comparison of pharmacological inhibitors of lysine-specific demethylase 1 in glioblastoma stem cells reveals inhibitor-specific efficacy profiles” (Frontiers in Neurology, 2023).

Series [1] has as its system MDA-GSC 262. Kind of series: Cell viability dose response (IC50), MDA-GSC 262. It counts as cell-based. The settings on record: Homo sapiens, mean of three independent experiments. Here is the method:
(§1) MDA-GSCs were plated at 50,000 cells/well into 12-well plates at and allowed to grow for 5 days until neurospheres were formed. The cells were then treated with either TCP, GSK-LSD1, or RN-1 at various concentrations for 5 days. Next, the cells were collected and neurospheres were dissociated with Accutase (BioLegend; San Diego, CA). Cell viability was determined using a trypan dye exclusion assay and read with the Vi-Cell XR Cell Viability Analyzer (Beckman Coulter; Brea, CA). NHAs were plated at 50,000 cells/well into 12-well plates and allowed to adhere overnight. The following day, NHAs were treated with the LSD1 inhibitors. After 5 days, the cells were detached using TrypLE and assessed with the trypan blue dye exclusion assay.
(§2) The alamarBlue cell viability (Bio-Rad; Hercules, CA) was performed on the MDA-GSCs according to the manufacturer’s protocol. The cells were plated at 5,000 cell/well into a 96-well plate and allowed to grow for 5 days. After 5 days, the alamarBlue reagent was added and fluorescence was measured with the Synergy 2 (BioTek Instruments; Winooski, VT) plate reader according to the manufacturer’s protocol.

Series [2] deals with MDA-GSC 311. The series can be described thus: Cell viability dose response (IC50), MDA-GSC 311. It is filed as cell-based. The settings on record: Homo sapiens, mean of three independent experiments. Here is the method: as §1, §2
Series [3] deals with MDA-GSC 20. The series can be described thus: Cell viability dose response (IC50), MDA-GSC 20. It counts as cell-based. To be noted: Homo sapiens, mean of three independent experiments. Here is the method: as §1, §2
Series [4] has as its system MDA-GSC 17. Kind of series: Cell viability dose response (IC50), MDA-GSC 17. The settings on record: Homo sapiens, mean of three independent experiments. It is filed as cell-based. As for the experimental part:
as §1, §2

Series [5] relates to MDA-GSC 6–27. The series can be described thus: Cell viability dose response (IC50), MDA-GSC 6–27. It is filed as cell-based. The settings on record: Homo sapiens, mean of three independent experiments. Here is the method: as §1, §2
The subject of series [6] is MDA-GSC 7–11. Kind of series: Cell viability dose response (IC50), MDA-GSC 7–11. It counts as cell-based. To be noted: Homo sapiens, mean of three independent experiments. As for the experimental part:
as §1, §2

For series [7], the system named is MDA-GSC 23. The series can be described thus: Cell viability dose response (IC50), MDA-GSC 23. It counts as cell-based. To be noted: Homo sapiens, mean of three independent experiments. Here is the method: as §1, §2
The subject of series [8] is MDA-GSC 8–11. Kind of series: Cell viability dose response (IC50), MDA-GSC 8–11. It is filed as cell-based. The settings on record: Homo sapiens, mean of three independent experiments. As for the experimental part: as §1, §2
In series [9] the test system is MDA-GSC 7–2. Kind of series: Cell viability dose response (IC50), MDA-GSC 7–2. To be noted: Homo sapiens, mean of three independent experiments. It is filed as cell-based. Here is the method:
as §1, §2

In series [10] the test system is NHA. Kind of series: Cell viability dose response (IC50), normal human astrocytes. It counts as cell-based. To be noted: for IC50: Homo sapiens, Astrocyte, mean of three independent experiments; for effect on NHA viability: NHA treated at the maximum concentration tested for each compound. Here is the method: as §1, §2
Series [11] concerns MDA-GSC lines. The series can be described thus: Cell viability across the panel of nine MDA-GSC lines. The settings on record: for concentrations at which MDA-GSC viability was reduced: many/several MDA-GSC lines, dose response curves Figure 2. It is filed as cell-based, Human. As for the experimental part:
as §1, §2

Details of series [12]: method as in PMID 34786883, PMID 33052756. To be noted: safety studies; cited from earlier work.
On the set-up of series [13]: method as in personal communications, Salarius Pharmaceuticals. The settings on record: ref personal communications, Salarius Pharmaceuticals; cited from earlier work.
In series [14] the test system is MDA-GSC20. The series can be described thus: qPCR of resistance-related genes, MDA-GSC20. The settings on record: MDA-GSC20 (resistant). It counts as cell-based, Human. As for the experimental part:
(§3) Total RNA was extracted using RNeasy Plus Mini Kit (Qiagen; Hilden, Germany) following the manufacturer’s protocol. cDNA was synthesized with the iScript cDNA synthesis kit (Bio-Rad; Hercules, CA), qPCR was performed using Forget-Me-Not EvaGreen qPCR kit (Biotium; Fremont, CA), and samples were analyzed with the LightCycler96 (Roche; Basel, Switzerland). Cq values were normalized to PPIA and reported as relative fold change from untreated control.

The subject of series [15] is MDA-GSC7-2. Kind of series: qPCR of resistance-related genes, MDA-GSC7-2. It counts as cell-based, Human. To be noted: MDA-GSC7-2 (sensitive). As for the experimental part: as §3
Series [16] deals with MDA-GSC8-11. The series can be described thus: qPCR of resistance-related genes, MDA-GSC8-11. It is filed as cell-based, Human. To be noted: MDA-GSC8-11 (resistant). Here is the method:
as §3

For series [17], the system named is MDA-GSC17. Kind of series: qPCR of resistance-related genes, MDA-GSC17. It is filed as cell-based, Human. The settings on record: MDA-GSC17 (sensitive). As for the experimental part: as §3

Bounds are passed on as bounds.

Turning to `CN1CCN(C(=O)[C@H](CCCN[C@@H]2C[C@H]2c2ccc(F)cc2)NC(=O)c2ccc(-n3ccnn3)cc2)CC1` [IMG-7289], the IC50 in series [1] is 41.2 µM; in [2], above 125 µM; in [3], 66.9 µM; in [4] it was 87.4 µM; in series [5] it was 39.9 µM; in series [6], 23.6 µM. Moreover, the half-inhibitory concentration (IC50) was found to be 34.2 µM in series [7], 56.1 µM in series [8], 32.1 µM in series [9] and 38.2 µM in [10] (NHA). The “concentrations at which MDA-GSC viability was reduced” value in series [11] is below 50 µM. Moreover, the “neurotoxic effects in human trials” value in [12] is on record as “have not revealed any neurotoxic effects”.
Take `N[C@H]1CC[C@H](N[C@@H]2C[C@H]2c2ccccc2)CC1` [ORY-1001]: the IC50 in [1] was 92.7 µM; in series [2], above 150 µM; in series [3], 54.8 µM; in [4] it was 107 µM; in series [5] it was 72.8 µM; in series [6] it was 64.7 µM. Moreover, the half-inhibitory concentration (IC50) in series [7] stood at 97.8 µM; in series [8], 64.5 µM; in series [9] it was 87.7 µM; in [10] (NHA), 96.3 µM. The “concentrations at which MDA-GSC viability was reduced” value in series [11] fell in the range of 50 to 90 µM. For the same compound, the “neurotoxic effects in human trials” value in [12] was “have not revealed any neurotoxic effects”.
As to `Nc1nnc(CN[C@@H]2C[C@H]2c2ccc(OCc3ccccc3)cc2)o1` [ORY-2001], the half-maximal inhibitory concentration (IC50) in series [1] was above 50 µM; in series [2], 45.6 µM; in series [3] it was above 50 µM; in series [4], above 50 µM; in series [5] it was above 50 µM; in series [6], 42.1 µM. In addition, the IC50 in series [7] was 48.1 µM; in series [8], above 50 µM; in [9] it was above 50 µM; in series [10] (NHA), above 50 µM; in series [11] (Homo sapiens, majority of MDA-GSCs, maximum dose 50 μM), above 50 µM.
Regarding `CN1CCN(C(=O)CN[C@H]2C[C@@H]2c2ccc(OCc3ccccc3)cc2)CC1` [RN-1], the IC50 in [1] was above 50 µM; in series [2], above 50 µM; in [3] it was 39.8 µM; in series [4], 22.5 µM; in series [5], 23.8 µM; in series [6], above 50 µM. Also, the IC50 in series [7], in series [8], in series [9] and in [10] (NHA) was above 50 µM each time. In series [10], the “effect on NHA viability” value was “minimal effect”. Besides, the “concentrations at which MDA-GSC viability was reduced” value in series [11] fell in the range of 20 to 50 µM.
On to `C/C(=N\NC(=O)c1cccc(S(=O)(=O)N2CCN(C)CC2)c1)c1cc(Cl)ccc1O` [SP-2577], for which the IC50 in series [1] is 8.8 µM; in series [2], 23.6 µM; in [3], above 25 µM; in [4], 15.7 µM; in [5] it was 6.8 µM; in [6] it was 5.6 µM. The IC50 turned out to be 16.8 µM in [7], 12.4 µM in series [8], 9.7 µM in [9] and 2.3 µM in series [10] (NHA). Moreover, in series [10] (NHA, Figure 2J), the “activity in noncancerous cells, NHA” value is on record as “strong activity”. Besides, the “concentrations at which MDA-GSC viability was reduced” value in series [11] was “less than 10 μM”. Moreover, the “crossing of the blood brain barrier” value in series [13] is “has not been found to cross the blood brain barrier”.
Consider `NC1CC1c1ccccc1` (stereo not shown) [TCP, tranylcypromine], for which the half-maximal inhibitory concentration (IC50) was 4100 µM in [1]; 3500 µM in series [2]; 4700 µM in series [3]; 2200 µM in series [4]; above 5000 µM in series [5]; above 5000 µM in [6]. For the same compound, the IC50 in series [7] is 2700 µM; in series [8], above 5000 µM; in series [9] it was 2700 µM; in [10] (NHA), above 5000 µM. The “effect on NHA viability” value in series [10] is listed as “minimal effect”. The “effects on cell viability” value in [11] (MDA-GSC lines, Figure 2C) is reported as “not seen until mM concentrations”. Moreover, the entries for the “expression of resistance-related genes (FTH1, RAB39B, HKDC1, FAM213A)” value in series [14] and in series [15] were “consistently increased” and “only minimal effects”, respectively. The “expression of resistance-related genes” value in series [16] is recorded as “increase in two of the resistance related genes”; in [17], “did not significantly increase”.
